Drawing on US7750048B2, “GPR40 agonists” (Janssen Pharmaceutica NV, priority 2006, dated 2010), this text covers EC50 for 27 compounds.

SMILES strings stand for the structures. Values joined by “and” are separate entries in the source; they are usually repeats but may differ in a detail not shown here. Equal entries are not always repeated.

This experiment has as its target T1, GPR40 receptor (Homo sapiens, UniProt O14842).
T1 construct: expressed in transfected cells; host or cells: HEK293 (clone hGPR40-32)
The experiment can be described thus: GPR40 in vitro assay: calcium mobilization in transfected HEK293/hGPR40-32 cells (FDSS6000). Type of experiment: cell-based. The conditions noted are these: several values in one cell are separate determinations, read-out: ED50 (the source's name). The procedure:
To identify agonists of GPR40 receptor, the following assay was used to measure FFA-induced calcium mobilization in transfected cell lines HEK293/hGPR40-32: • Plate 20,000 cell/well in Corning 384 well plate (Cat# 3712); • Incubate over night (16 to 24 hours); • Remove medium; • Add 40 μl of 1×BD dye (1× signal enhancer, 1× calcium indicator dye, 1× probenecid, 0.01% BSA in DMEM/F12 media without Phenol Rad); • Incubate 30 minutes at 37° C. and 15 minutes at RT; • Read with the FDSS6000 System; • Add 20 μl of test compound (in 0.01% BSA in DMEM/F12 media without Phenol Rad); • Read for 5 minutes; • Add 20 μl of 40 μM linolenic acid or GPR40 agonist (in 0.01% BSA in DMEM/F12 media without Phenol Rad); • Read for 2 minutes.
Percentage Inhibition and/or ED50 were calculated following conventional methods.
For orientation: A change in cytosolic calcium serves as a functional read-out for many receptors and channels.

T1 sequence (O14842 whole entry): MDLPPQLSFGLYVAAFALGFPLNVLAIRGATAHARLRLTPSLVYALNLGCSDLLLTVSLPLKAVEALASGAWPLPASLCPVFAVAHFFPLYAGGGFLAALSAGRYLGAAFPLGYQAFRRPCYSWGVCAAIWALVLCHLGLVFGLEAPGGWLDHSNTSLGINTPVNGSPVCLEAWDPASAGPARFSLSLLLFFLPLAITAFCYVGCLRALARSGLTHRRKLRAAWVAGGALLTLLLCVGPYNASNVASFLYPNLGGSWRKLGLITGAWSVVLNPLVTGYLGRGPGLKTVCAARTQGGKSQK

Take `CCC(CC)COc1ccc(C(CC(=O)O)c2ccccc2)cc1` (racemic) [Compound 11, 3-[4-(2-Ethyl-butoxy)-phenyl]-3-phenyl-propionic acid]: the EC50 came to 0.64 µM.

Regarding `CCC(CC)COc1ccc(C(CC(=O)O)c2ccccc2)cc1` (single isomer, unassigned) [Compound 14, 3-[4-(2-Ethyl-butoxy)-phenyl]-3-phenyl-propionic acid], the EC50 is over 30 µM.

As for `CCC(CC)COc1ccc(C(CC(=O)O)c2ccccc2)cc1` (single isomer, unassigned) [Compound 15, 3-[4-(2-Ethyl-butoxy)-phenyl]-3-phenyl-propionic acid], the EC50 amounted to 0.85 µM.

As for `CC[C@@H](C)COc1ccc(C(CC(=O)O)c2ccccc2)cc1` (single isomer, unassigned) [Compound 16, 3-[4-(2-Methyl-butoxy)-phenyl]-3-phenyl-propionic acid], the EC50 amounted to 0.71 µM.

As to `CC[C@H](C)COc1ccc(C(CC(=O)O)c2ccccc2)cc1` (single isomer, unassigned) [Compound 17, 3-[4-(2-Methyl-butoxy)-phenyl]-3-phenyl-propionic acid], the EC50 was found to be 0.56 µM.

On to `CC[C@@H](C)COc1ccc(C(CC(=O)O)c2ccccc2)cc1` (single isomer, unassigned) [Compound 18, 3-[4-(2-Methyl-butoxy)-phenyl]-3-phenyl-propionic acid], for which the EC50 is over 10 µM.

As to `CC[C@H](C)COc1ccc(C(CC(=O)O)c2ccccc2)cc1` (single isomer, unassigned) [Compound 19, 3-[4-(2-Methyl-butoxy)-phenyl]-3-phenyl-propionic acid], the EC50 was over 10 µM.

On to `CCCOc1ccc(C(CC(=O)O)c2ccccc2)cc1` (stereo not drawn) [Compound 1, 3-Phenyl-3-(4-propoxy-phenyl)-propionic acid], for which the EC50 stood at 3.7 µM.

Regarding `CCCCOc1ccc(C(CC(=O)O)c2ccccc2)cc1` (stereo not drawn) [Compound 2, 3-(4-Butoxy-phenyl)-3-phenyl-propionic acid], the EC50 is 1.43 µM and 0.96 µM.

`CCCCCOc1ccc(C(CC(=O)O)c2ccccc2)cc1` (stereo not drawn) [Compound 3, 3-(4-Pentyloxy-phenyl)-3-phenyl-propionic acid]: the EC50 was 3.3 µM and 4.2 µM and 1.4 µM.

`CCCCCCOc1ccc(C(CC(=O)O)c2ccccc2)cc1` (stereo not drawn) [Compound 4, 3-(4-Hexyloxy-phenyl)-3-phenyl-propionic acid]: the EC50 amounted to 2.88 µM.

`CCCCCCCOc1ccc(C(CC(=O)O)c2ccccc2)cc1` (stereo not drawn) [Compound 5, 3-(4-Heptyloxy-phenyl)-3-phenyl-propionic acid]: the EC50 was 4.26 µM.

Consider `O=C(O)CC(c1ccccc1)c1ccc(OCCCC(F)(F)F)cc1` (stereo not drawn) [Compound 6, 3-Phenyl-3-[4-(4,4,4-trifluoro-butoxy)-phenyl]-propionic acid], for which the EC50 worked out at 3.16 µM.

`CC(C)CCOc1ccc(C(CC(=O)O)c2ccccc2)cc1` (stereo not drawn) [Compound 7, 3-[4-(3-Methyl-butoxy)-phenyl]-3-phenyl-propionic acid]: the EC50 is 1.81 µM and 2.58 µM and 1.18 µM.

Consider `C=C(C)CCOc1ccc(C(CC(=O)O)c2ccccc2)cc1` (stereo not drawn) [Compound 8, 3-[4-(3-Methyl-but-3-enyloxy)-phenyl]-3-phenyl-propionic acid], for which the EC50 turned out to be 2.71 µM.

As to `CC=CCOc1ccc(C(CC(=O)O)c2ccccc2)cc1` (stereo not drawn) [Compound 9, 3-(4-But-2-enyloxy-phenyl)-3-phenyl-propionic acid], the EC50 turned out to be 2.71 µM.

Turning to `COCCCOc1ccc(C(CC(=O)O)c2ccccc2)cc1` (stereo not drawn) [Compound 10, 3-[4-(3-methoxy-propoxy)-phenyl]-3-phenyl-propionic acid], the EC50 was found to be 7.58 µM.

Turning to `CCC(C)COc1ccc(C(CC(=O)O)c2ccccc2)cc1` (stereo not drawn) [Compound 12, 3-[4-(2-Methyl-butoxy)-phenyl]-3-phenyl-propionic acid], the EC50 is 0.33 µM and 0.26 µM.

In the case of `CC1CCC(Oc2ccc(C(CC(=O)O)c3ccccc3)cc2)CC1` (stereo not drawn) [Compound 13, 3-[4-(4-Methyl-cyclohexyloxy)-phenyl]-3-phenyl-propionic acid], the EC50 was determined as 7.32 µM.

In the case of `CCCCOc1ccc(C(CC(=O)O)c2cccc(F)c2)cc1` (stereo not drawn) [Compound 20, 3-(4-Butoxy-phenyl)-3-(3-fluoro-phenyl)-propionic acid], the EC50 came out at 1.44 µM.

As to `CCCCOc1ccc(C(CC(=O)O)c2cccc(C(F)(F)F)c2)cc1` (stereo not drawn) [Compound 21, 3-(4-Butoxy-phenyl)-3-(3-trifluoromethyl-phenyl)-propionic acid], the EC50 turned out to be 2.84 µM.

`CCCCOc1ccc(C(CC(=O)O)c2ccccc2O)cc1` (stereo not drawn) [Compound 22, 3-(4-Butoxy-phenyl)-3-(2-hydroxy-phenyl)-propionic acid]: the EC50 amounted to 4.8 µM.

Consider `CCCCOc1ccc(C(CC(=O)O)c2cccs2)cc1` (stereo not drawn) [Compound 23, 3-(4-Butoxy-phenyl)-3-thiophen-2-yl-propionic acid], for which the EC50 was 0.96 µM and 1.61 µM.

In the case of `COCCOc1ccc(C(CC(=O)O)c2ccccc2)cc1` (stereo not drawn) [Compound 24, 3-[4-(2-Methoxy-ethoxy)-phenyl]-3-phenyl-propionic acid], the EC50 is over 10 µM.

`CCC(CC)Oc1ccc(C(CC(=O)O)c2ccccc2)cc1` (stereo not drawn) [Compound 25, 3-[4-(1-Ethyl-propoxy)-phenyl]-3-phenyl-propionic acid]: the EC50 is over 10 µM.

Consider `CCCCOc1ccc(C(CC(=O)O)c2ccc(OC(F)(F)F)cc2)cc1` (stereo not drawn) [Compound 26, 3-(4-Butoxy-phenyl)-3-(4-trifluoromethoxy-phenyl)-propionic acid], for which the EC50 was over 10 µM.

Take `CC(C)(C)CCOc1ccc(C(CC(=O)O)c2ccccc2)cc1` (stereo not drawn) [Compound 28, 3-[4-(3,3-Dimethyl-butoxy)-phenyl]-3-phenyl-propionic acid]: the EC50 is over 10 µM.
